Key:
FLT3 = target: T1, FLT3 (Homo sapiens, UniProt P36888); assay: TR-FRET kinase activity assay, FLT3; type: biochemical; conditions: ATP at Km, 60 minutes
T1 sequence (P36888 27-993): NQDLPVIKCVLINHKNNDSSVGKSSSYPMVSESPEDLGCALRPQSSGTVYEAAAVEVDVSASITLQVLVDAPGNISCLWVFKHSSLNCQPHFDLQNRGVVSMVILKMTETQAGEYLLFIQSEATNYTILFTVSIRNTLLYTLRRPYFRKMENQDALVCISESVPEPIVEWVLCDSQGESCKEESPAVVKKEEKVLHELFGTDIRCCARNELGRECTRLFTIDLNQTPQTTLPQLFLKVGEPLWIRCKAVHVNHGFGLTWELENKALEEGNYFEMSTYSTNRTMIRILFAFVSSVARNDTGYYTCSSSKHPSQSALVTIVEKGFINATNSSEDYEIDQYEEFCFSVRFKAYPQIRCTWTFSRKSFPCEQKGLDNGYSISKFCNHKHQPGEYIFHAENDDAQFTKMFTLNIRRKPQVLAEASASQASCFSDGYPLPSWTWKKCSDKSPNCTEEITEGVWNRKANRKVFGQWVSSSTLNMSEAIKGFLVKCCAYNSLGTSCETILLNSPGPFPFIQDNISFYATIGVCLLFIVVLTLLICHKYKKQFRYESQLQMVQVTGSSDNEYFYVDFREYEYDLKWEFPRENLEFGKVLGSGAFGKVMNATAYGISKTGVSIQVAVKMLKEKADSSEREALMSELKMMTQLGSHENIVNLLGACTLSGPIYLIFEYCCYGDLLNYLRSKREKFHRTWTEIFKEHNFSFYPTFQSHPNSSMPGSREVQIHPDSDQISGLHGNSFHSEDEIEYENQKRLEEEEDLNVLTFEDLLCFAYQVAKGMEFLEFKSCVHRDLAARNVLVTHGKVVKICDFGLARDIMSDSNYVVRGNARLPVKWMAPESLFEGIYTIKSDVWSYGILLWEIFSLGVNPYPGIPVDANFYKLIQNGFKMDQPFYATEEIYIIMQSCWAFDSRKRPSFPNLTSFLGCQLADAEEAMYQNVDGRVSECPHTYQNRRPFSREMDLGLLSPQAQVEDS
Summary of the method: (§1)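 Recombinant human kinases, fluorescent peptide substrate, ATP at Km; 1 h RT, pH 7.5. EDTA-quenched, Eu antibody added, TR-FRET read; IC50 determined.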

MERTK = target: T2, MERTK (Homo sapiens, UniProt Q12866); assay: TR-FRET kinase activity assay, MERTK; type: biochemical; conditions: for IC50: TR-FRET activity assay, ATP at Km, 60 minutes, read-out: Mer IC50
T2 sequence (Q12866 21-999): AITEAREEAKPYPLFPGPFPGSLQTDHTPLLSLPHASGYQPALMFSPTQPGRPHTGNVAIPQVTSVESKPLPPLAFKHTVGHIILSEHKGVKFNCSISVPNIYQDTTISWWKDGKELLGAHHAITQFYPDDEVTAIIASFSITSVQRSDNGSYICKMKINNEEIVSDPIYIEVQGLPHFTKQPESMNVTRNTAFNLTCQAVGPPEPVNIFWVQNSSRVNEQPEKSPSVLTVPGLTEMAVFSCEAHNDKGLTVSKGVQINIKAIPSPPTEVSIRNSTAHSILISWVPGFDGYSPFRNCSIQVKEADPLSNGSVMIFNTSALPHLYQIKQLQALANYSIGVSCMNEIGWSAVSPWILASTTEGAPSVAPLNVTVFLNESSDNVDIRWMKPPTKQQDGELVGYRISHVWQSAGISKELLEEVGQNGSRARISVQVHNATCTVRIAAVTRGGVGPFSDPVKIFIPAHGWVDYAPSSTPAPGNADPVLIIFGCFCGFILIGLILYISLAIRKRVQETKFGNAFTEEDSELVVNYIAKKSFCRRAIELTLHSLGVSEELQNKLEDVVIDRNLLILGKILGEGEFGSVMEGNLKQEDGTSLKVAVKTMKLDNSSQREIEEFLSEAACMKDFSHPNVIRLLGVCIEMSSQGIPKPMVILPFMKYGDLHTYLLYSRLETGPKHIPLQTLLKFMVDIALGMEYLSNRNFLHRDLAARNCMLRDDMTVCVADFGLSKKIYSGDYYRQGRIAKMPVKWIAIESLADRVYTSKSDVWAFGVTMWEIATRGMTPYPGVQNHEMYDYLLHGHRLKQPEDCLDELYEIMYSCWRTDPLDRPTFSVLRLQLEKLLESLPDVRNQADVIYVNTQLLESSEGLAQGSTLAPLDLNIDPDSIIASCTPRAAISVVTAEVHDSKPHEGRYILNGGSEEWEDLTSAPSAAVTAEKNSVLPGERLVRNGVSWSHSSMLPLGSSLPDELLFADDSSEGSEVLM
Summary of the method: as §1

[1] = ratio of Mer to FLT3: FLT3 IC50/Mer IC50
[2] = ratio calculated as FLT3 IC50/Mer IC50

SMILES | IC50 (FLT3) | IC50 (MERTK) | FLT3/Mer ratio (FLT3 IC50/Mer IC50) (MERTK; [1]) | FLT3/Mer ratio (FLT3 IC50/Mer IC50) (MERTK; [2])
CC(CC(F)F)Nc1ncc2c(-c3ccc(CN4CCN(C)CC4)cc3)cc(C3CCC(O)CC3)n2n1 (stereo not drawn) [Compound 352] | ≤ 100 nM | ≤ 100 nM | ++ (“++” represents a ratio of between 10 and 100) | 
COC[C@H](C)Nc1ncc2c(-c3ccnc(N4CCOCC4)c3)cc([C@H]3CC[C@H](O)CC3)n2n1 [Compound 355] | ≤ 100 nM | ≤ 100 nM | + (“+” represents a ratio of >2.0 and <10) | 
CC(C)Nc1ncc2c(-c3ccnc(N4CCOCC4)c3)cc([C@H]3CC[C@H](O)CC3)n2n1 [Compound 350] | ≤ 100 nM | ≤ 100 nM | +++ (“+++” represents a ratio of >100) | 
COC[C@H](C)Nc1ncc2c(-c3ccnc(O[C@@H]4CCNC4)c3)cc([C@H]3CC[C@H](O)CC3)n2n1 [Compound 401] | 100 to 1000 nM | ≤ 100 nM |  | +++ (“+++” represents a ratio of >100)
COC[C@H](C)Nc1ncc2c(-c3cnn(CCC#N)c3)cc([C@H]3CC[C@](C)(O)CC3)n2n1 [Compound 382] | 100 to 1000 nM | ≤ 100 nM | +++ (“+++” represents a ratio of >100) | 
COC[C@H](C)Nc1ncc2c(-c3cnn(CS(C)(=O)=O)c3)cc([C@H]3CC[C@H](O)CC3)n2n1 [Compound 419] | 100 to 1000 nM | ≤ 100 nM |  | +++ (“+++” represents a ratio of >100)
CC(=O)N1CCN(Cc2ccc(-c3cc(C4CCC(O)CC4)n4nc(NC(C)CC(F)(F)F)ncc34)cc2)CC1 (stereo not drawn) [Compound 370] | ≤ 100 nM | ≤ 100 nM | + (“+” represents a ratio of >2.0 and <10) | 
CC[C@H](C)Nc1ncc2c(-c3cncc(S(C)(=O)=O)c3)cc([C@H]3CC[C@@H](O)CC3)n2n1 [Compound 120] | 1000 to 10000 nM | ≤ 100 nM | +++ (“+++” represents a ratio of >100) | 
CNC(=O)c1cc(-c2cc([C@H]3CC[C@H](O)CC3)n3nc(N[C@@H](C)CC(F)(F)F)ncc23)ccn1 [Compound 384] | ≤ 100 nM | ≤ 100 nM | +++ (“+++” represents a ratio of >100) | 
O[C@H]1CC[C@H](c2cc(-c3ccnc(N4CCOCC4)c3)c3cnc(NCCC(F)(F)F)nn32)CC1 [Compound 363] | ≤ 100 nM | ≤ 100 nM | + (“+” represents a ratio of >2.0 and <10) | 
OC1CCC(c2cc(-c3ccnc(N4CCOCC4)c3)c3cnc(NCCC4CC4)nn23)CC1 (stereo not drawn) [Compound 359] | ≤ 100 nM | ≤ 100 nM | + (“+” represents a ratio of >2.0 and <10) | 
COCC(C)Nc1ncc2c(C3CCCN(C(C)=O)C3)cc(C3CCC(O)CC3)n2n1 (stereo not drawn) [Compound 371] | 1000 to 10000 nM | ≤ 100 nM | +++ (“+++” represents a ratio of >100) | 
CNS(=O)(=O)c1ccc(-c2cc([C@H]3CC[C@H](O)CC3)n3nc(N[C@@H](C)CC(F)(F)F)ncc23)cn1 [Compound 360] | ≤ 100 nM | ≤ 100 nM | ++ (“++” represents a ratio of between 10 and 100) | 

Further lines, results first:

IC50 (FLT3) | IC50 (MERTK) | FLT3/Mer ratio (FLT3 IC50/Mer IC50) (MERTK; [1]) | FLT3/Mer ratio (FLT3 IC50/Mer IC50) (MERTK; [2]) | SMILES
1000 to 10000 nM | ≤ 100 nM | +++ (“+++” represents a ratio of >100) |  | COC[C@H](C)Nc1ncc2c([C@H]3CCCN(c4ccnc(C)n4)C3)cc([C@H]3CC[C@H](O)CC3)n2n1 [Compound 377]
100 to 1000 nM | ≤ 100 nM | +++ (“+++” represents a ratio of >100) |  | COC[C@H](C)Nc1ncc2c(-c3ccnc(N4CCS(=O)(=O)CC4)c3)cc([C@H]3CC[C@H](O)CC3)n2n1 [Compound 357]
1000 to 10000 nM | ≤ 100 nM | +++ (“+++” represents a ratio of >100) |  | COCC(C)Nc1ncc2c(-c3cnn(C(C)(C)C(=O)N4CCOC(C)(C)C4)c3)cc(C3CCC(O)CC3)n2n1 (stereo not drawn) [Compound 366]
1000 to 10000 nM | ≤ 100 nM | +++ (“+++” represents a ratio of >100) |  | COCC(C)Nc1ncc2c(C3CCN(c4ccnc(C)n4)C3)cc(C3CCC(O)CC3)n2n1 (stereo not drawn) [Compound 374]
100 to 1000 nM | ≤ 100 nM | +++ (“+++” represents a ratio of >100) |  | COC[C@H](C)Nc1ncc2c(-c3ccnc(C)c3)cc([C@H]3CC[C@](C)(O)CC3)n2n1 [Compound 391]
100 to 1000 nM | ≤ 100 nM | +++ (“+++” represents a ratio of >100) |  | COC[C@H](C)Nc1ncc2c(-c3cnn([C@H]4CCNC4=O)c3)cc([C@H]3CC[C@H](O)CC3)n2n1 [Compound 348]
1000 to 10000 nM | ≤ 100 nM |  | +++ (“+++” represents a ratio of >100) | CNC(=O)c1cncc(-c2cc([C@H]3CC[C@H](O)CC3)n3nc(N[C@@H](C)COC(F)F)ncc23)c1 [Compound 398]
100 to 1000 nM | ≤ 100 nM | +++ (“+++” represents a ratio of >100) |  | COC[C@H](C)Nc1ncc2c(-c3cnn([C@H]4CCC(C(=O)OC(C)(C)C)C4)c3)cc([C@H]3CC[C@H](O)CC3)n2n1 (stereo partly drawn) [Compound 365]
1000 to 10000 nM | ≤ 100 nM | +++ (“+++” represents a ratio of >100) |  | COC[C@H](C)Nc1ncc2c(-c3ccnc(OC4COC4)c3)cc([C@H]3CC[C@H](O)CC3)n2n1 [Compound 358]
1000 to 10000 nM | ≤ 100 nM | +++ (“+++” represents a ratio of >100) |  | COC[C@H](C)Nc1ncc2c([C@@H]3CCN(S(C)(=O)=O)C3)cc([C@H]3CC[C@H](O)CC3)n2n1 [Compound 375]
100 to 1000 nM | ≤ 100 nM | +++ (“+++” represents a ratio of >100) |  | COC[C@H](C)Nc1ncc2c(-c3cnn(CC4CCCO4)c3)cc([C@H]3CC[C@H](O)CC3)n2n1 (stereo partly drawn) [Compound 380]
1000 to 10000 nM | ≤ 100 nM | +++ (“+++” represents a ratio of >100) |  | CCC(C)Nc1ncc2c(C)cc(C3CCC(O)CC3)n2n1 (stereo not drawn) [Compound 123]
100 to 1000 nM | ≤ 100 nM | +++ (“+++” represents a ratio of >100) |  | COC[C@H](C)Nc1ncc2c(-c3cnn(C4CCN(C)C4=O)c3)cc([C@H]3CC[C@H](O)CC3)n2n1 (stereo partly drawn) [Compound 394, 3-(4-(7-((trans)-4-hydroxycyclohexyl)-2-(((S)-1-methoxypropan-2-yl)amino)pyrrolo[2,1-f][1,2,4]triazin-5-yl)-1H-pyrazol-1-yl)-1-methylpyrrolidin-2-one]
100 to 1000 nM | ≤ 100 nM |  | +++ (“+++” represents a ratio of >100) | COC[C@H](C)Nc1ncc2c(-c3cnn([C@H]4CCN(C(C)=O)C4)c3)cc([C@H]3CC[C@H](O)CC3)n2n1 [Compound 397]
